Measurements published in US11672799B2, “1,4-disubstituted pyridazine quinolne analogs there of and methods for treating SMN-deficiency-related conditions” (Novartis AG, priority 2013, dated 2023).
Read-outs that look alike come from different tables or passages of the source.

System: SMN protein
Experiment: cellular SMN ELISA (SMN protein elevation) in myoblast cell line from SMNdelta7 mouse model
Assay type: cell-based
Description: A cellular SMN ELISA was used to measure the effects of low molecular weight compounds on SMN protein elevation. Cells from a myoblast cell line derived from the SMNdelta7 mouse model (kind gift from Steve Burden, NYU) were seeded into a 384-well plate at a density of 3000 cells/well and treated with compounds for 24 hours. ELISA capture plates were prepared by coating 384-well plates (Immulon 4HBX) with 0.5 ug/mL of anti-SMN mAb (BD Science, Catalog number 610647) at 4° C. overnight. The plates were washed 5 times with 110 uL of PBS-Tween (0.05% Tween-20, PBST), blocked with 100 uL of 1% BSA in PBST for 2 hours and washed (5 times) with 100 uL of PBST. After 24 hours of compound treatment cells were lysed in a modified RIPA-buffer, on ice for 1 hour. 20 uL of lysate and 20 uL of 1% BSA were then added to the ELISA capture plates and incubated at 4° C. overnight. Plates were washed (5 times) with PBST and then incubated with 1:100 dilution of primary rabbit anti-SMN polyclonal antibody (Santa cruz, Catalog number SC-15320) at room temperature for 1 hour and subsequently washed (5 times) with 110 uL of PBST. This was followed by addition of 1:100 Goat anti-Rabbit IgG-HRP linked (Cell Signaling, Catalog number 7074) secondary antibody for 1 hour. Plates were then washed with PBST and incubated with 40 uL TMB substrate (Cell Signaling, Catalog number 7004 L) at room temperature for 1-10 minutes with shaking. The reaction was stopped by addition of 40 uL of stop solution (Cell signaling, Catalog number 7002 L) and absorption was measured at 450 nm. Data was reported as fold activation over DMSO control, and EC50.
ELISA assay condition 1: compound concentration range 20 nM-10 uM; ELISA assay condition 2: compound concentration 100 pM-10 uM. Data generated in Biological Example 1 using ELISA conditions 1 or 2.

[1] = Biological Example 1, SMN ELISA, SMNdelta7 mouse myoblasts, 24 hours compound treatment
[2] = Biological Example 1, SMN ELISA, SMNdelta7 mouse myoblasts, 24 hours compound treatment, read-out: SMN Activity (EC50)
[3] = comparison of unsubstituted, ortho-hydroxy and ortho-alkoxy pyridazines, as in Biological Example 1
[4] = comparison of unsubstituted, ortho-hydroxy and ortho-alkoxy pyridazines, as in Biological Example 1, read-out: SMN ELISA EC50

| SMILES | SMN Activity (fold activation over DMSO control) [1] [fold] | EC50 [2] [nM] | Fold activation [3] | EC50 [4] [nM] |
| --- | --- | --- | --- | --- |
| Cc1nccc2cc(-c3ccc(N(C)C4CC(C)(C)NC(C)(C)C4)nn3)c(O)cc12 [Example 29-1, 1-methyl-6-(6-(methyl(2,2,6,6-tetramethylpiperidin-4-yl)amino)pyridazin-3-yl)isoquinolin-7-ol] | 2.96 | 14 | – | – |
| CN(c1ccc(-c2cc3nc(C(N)=O)ccc3cc2O)nn1)C1CC(C)(C)NC(C)(C)C1 [Example 26-6, 6-hydroxy-7-(6-(methyl(2,2,6,6-tetramethylpiperidin-4-yl)amino)pyridazin-3-yl)quinoline-2-carboxamide] | 2.6 | 7 | – | – |
| Cc1cc(N2CCC2)c2cc(-c3ccc(N(C)C4CC(C)(C)NC(C)(C)C4)nn3)c(O)cc2n1 [Example 20-1, 4-(azetidin-1-yl)-2-methyl-6-(6-(methyl(2,2,6,6-tetramethylpiperidin-4-yl)amino)pyridazin-3-yl)quinolin-7-ol] | 2.86 | 84 | – | – |
| CN(c1ccc(-c2cc3c(O)nccc3cc2O)nn1)C1CC(C)(C)NC(C)(C)C1 [Example 3-6, 7-(6-(methyl(2,2,6,6-tetramethylpiperidin-4-yl)amino)pyridazin-3-yl)isoquinoline-1,6-diol] | 2.43 | 8 | – | – |
| CN(c1ccc(-c2cc3cnc(-c4ccccc4)cc3cc2O)nn1)C1CC(C)(C)NC(C)(C)C1 [Example 36-1, 7-(6-(methyl(2,2,6,6-tetramethyl-piperidin-4-yl)amino)-pyridazin-3-yl)-3-phenylisoquinolin-6-ol] | 2.32 | 282 | – | – |
| CN(c1ccc(-c2cc3c(=O)nc[nH]c3cc2O)nn1)C1CC(C)(C)NC(C)(C)C1 [Example 22-1, 7-hydroxy-6-(6-(methyl(2,2,6,6-tetramethylpiperidin-4-yl)amino)pyridazin-3-yl)quinazolin-4(1H)-one] | 2.58 | 110 | – | – |
| CCc1cnc2cc(O)c(-c3ccc(N(C)C4CC(C)(C)NC(C)(C)C4)nn3)cc2c1 [Example 8-1, 3-ethyl-6-(6-(methyl(2,2,6,6-tetramethylpiperidin-4-yl)amino)pyridazin-3-yl)quinolin-7-ol] | 2.9 | 86 | – | – |
| COc1ccnc2cc(-c3ccc(N(C)C4CC(C)(C)NC(C)(C)C4)nn3)c(O)cc12 [Example 12-1, 4-methoxy-7-(6-(methyl(2,2,6,6-tetramethylpiperidin-4-yl)amino)pyridazin-3-yl)quinolin-6-ol] | 2.4 | 3 | – | – |
| COc1cc2cccnc2cc1-c1ccc(N(C)C2CC(C)(C)NC(C)(C)C2)nn1 [drawing 136 R = OMe, 6-(6-Methoxyquinolin-7-yl)-N-methyl-N-(2,2,6,6-tetramethylpiperidin-4-yl)pyridazin-3-amine] | – | – | 1.7 | 1170 |
| CC1(C)CC(Oc2ccc(-c3cc4c(O)nccc4cc3O)nn2)CC(C)(C)N1 [Example 35-4, 7-(6-((2,2,6,6-tetramethylpiperidin-4-yl)oxy)pyridazin-3-yl)isoquinoline-1,6-diol] | 3.26 | 96 | – | – |
| Cc1nc2cc(O)c(-c3ccc(N(C)C4CC(C)(C)NC(C)(C)C4)nn3)cc2nc1C [Example 18-1, 2,3-dimethyl-7-(6-(methyl(2,2,6,6-tetramethylpiperidin-4-yl)amino)pyridazin-3-yl)quinoxalin-6-ol] | 3.24 | 15 | – | – |
| CCOc1nccc2cc(O)c(-c3ccc(N(C)C4CC(C)(C)NC(C)(C)C4)nn3)cc12 [Example 35-3, 1-ethoxy-7-(6-(methyl(2,2,6,6-tetramethylpiperidin-4-yl)amino)pyridazin-3-yl)isoquinolin-6-ol] | 2.26 | 13 | – | – |
| CN1C(=O)CCc2cc(-c3ccc(N(C)C4CC(C)(C)NC(C)(C)C4)nn3)c(O)cc21 [Example 24-1, 7-hydroxy-1-methyl-6-(6-(methyl(2,2,6,6-tetramethylpiperidin-4-yl)amino)pyridazin-3-yl)-3,4-dihydroquinolin-2(1H)-one] | 1.74 | 71 | – | – |
| CN(c1ccc(-c2cc3cc(Br)cnc3cc2O)nn1)C1CC(C)(C)NC(C)(C)C1 [Example 7-2, 3-bromo-6-(6-(methyl(2,2,6,6-tetramethylpiperidin-4-yl)amino)pyridazin-3-yl)quinolin-7-ol] | 2.6 | 8 | – | – |
| CN(c1ccc(-c2cc3ccncc3cc2O)nn1)C1CC(C)(C)NC(C)(C)C1 [Example 4-1, 6-(6-(methyl(2,2,6,6-tetramethylpiperidin-4-yl)amino)pyridazin-3-yl)isoquinolin-7-ol] | 2.6 | 6 | 2.6 | 6 |
| CN(c1ccc(-c2cc3ccc(=O)n(C)c3cc2O)nn1)C1CC(C)(C)NC(C)(C)C1 [Example 9-2, 7-hydroxy-1-methyl-6-(6-(methyl(2,2,6,6-tetramethylpiperidin-4-yl)amino)pyridazin-3-yl)quinolin-2(1H)-one] | 2.25 | 7 | – | – |
| COc1cc(C)nc2cc(O)c(-c3ccc(N(C)C4CC(C)(C)NC(C)(C)C4)nn3)cc12 [Example 10-1, 4-methoxy-2-methyl-6-(6-(methyl(2,2,6,6-tetramethylpiperidin-4-yl)amino)pyridazin-3-yl)quinolin-7-ol] | 3.3 | 10 | – | – |
| CN(c1ccc(-c2cc3cccnc3cc2O)nn1)C1CC(C)(C)N(C)C(C)(C)C1 [Example 1-2, 6-(6-(methyl(1,2,2,6,6-pentamethylpiperidin-4-yl)amino)pyridazin-3-yl)quinolin-7-ol] | 2.4 | 340 | – | – |
| CN(c1ccc(-c2cc3ncccc3cc2O)nn1)C1CC(C)(C)NC(C)(C)C1 [Example 6-1, 7-(6-(methyl(2,2,6,6-tetramethylpiperidin-4-yl)amino)pyridazin-3-yl)quinolin-6-ol] | 2.82 | 7 | 2.8 | 7 |
| CN(c1ccc(-c2cc3cc(Cl)cnc3cc2O)nn1)C1CC(C)(C)NC(C)(C)C1 [Example 7-1, 3-chloro-6-(6-(methyl(2,2,6,6-tetramethylpiperidin-4-yl)amino)pyridazin-3-yl)quinolin-7-ol] | 2.8 | 14 | – | – |
| Cc1cc(C2=CCOCC2)c2cc(-c3ccc(N(C)C4CC(C)(C)NC(C)(C)C4)nn3)c(O)cc2n1 [Example 20-4, 4-(3,6-dihydro-2H-pyran-4-yl)-2-methyl-6-(6-(methyl(2,2,6,6-tetramethylpiperidin-4-yl)amino)pyridazin-3-yl)quinolin-7-ol] | 2.72 | 166 | – | – |
| CN(c1ccc(-c2cc3cc(C#N)cnc3cc2O)nn1)C1CC(C)(C)NC(C)(C)C1 [Example 7-3, 7-hydroxy-6-(6-(methyl(2,2,6,6-tetramethylpiperidin-4-yl)amino)pyridazin-3-yl)quinoline-3-carbonitrile] | 3.1 | 8 | – | – |
